Cc1nc(-c2ccc(OCC(C)C)c(C#N)c2)sc1C(=O)O
solubility (mole fraction)
Details	293.15 K	298.15 K	303.15 K	308.15 K	313.15 K	318.15 K	323.15 K	328.15 K
in acetone	0.00623	0.00743	0.00921	0.0107	0.0129	0.0147	0.0162	0.0171
in ethanol	0.00122	0.00177	0.00269	0.00401	0.00584	0.00836	0.0109	0.0143
in ethyl acetate	0.00376	0.00456	0.00516	0.00643	0.00732	0.00828	0.00975	0.0114
in methanol	0.000524	0.000856	0.00117	0.00162	0.00229	0.00325	0.0045	0.00685

— BigSolDB 2.1
